Results taken from patent publication US5342925A, “Radioactive compositions for soft tissue tumors” (priority 1991, dated 1994).
“And” between values parts separate entries of the source, which are not always exact repeats. Equal values may be shown once.

Tests used:
[1] = Whole body retention (whole body counts after I.V. injection) in miniature pigs with melanotic lesions; type: in vivo; conditions: for % Whole Body Retention (24 hrs.): I.V., 1-2 mCi 153Sm, % = percentage of injected dose
Protocol: (§1) Images (right lateral, left lateral and dorsal) were made at 4, 24, 48 and 72 hours.

[2] = Bone and liver uptake scored from scintigraphic images of miniature pigs with melanotic lesions; type: in vivo
Protocol: as §1
(§2) 1--Slight uptake (negligible)
(§3) 2--Moderate uptake (intermediate )
(§4) 3--Definite uptake (high)
(§5) The average of the 3 investigators independent scores were used in the following table.

Ehrlich tumors = conditions: experimental animals bearing Ehrlich tumors; cited from earlier work
[3] = tested on: naturally occurring melanotic lesions; assay: Tumor uptake scored from images of miniature pigs with naturally occurring melanotic lesions; type: in vivo; conditions: 24 hour images, average score of 3 investigators, scale 0-3
Protocol: as §1, §2, §3, §4, §5

[4] = in vivo; cited from earlier work
[5] = Comparative Example A, in words
[6] = 24 hour images, average score of 3 investigators, scale 0-3

Which “clearance from extracellular fluid” value [1, 5] does the source give for `O=C([O-])CC(O)(CC(=O)[O-])C(=O)[O-].[67Ga+3]` [^67 Ga-citrate, reference compound] here?
The value was “never cleared the extracellular fluid”.

And the Liver Uptake [2, 5]?
Its Liver Uptake is “unacceptably large liver uptake”.

Which tumor imaging (Ehrlich tumors) does the source give for `O=C(O)CN(CC(=O)O)CC(=O)O` [nitrilotriacetic acid (NTA), nitrilotriacetic acid] here?
The tumor imaging was “less effective”.

Which results are given for `CC(=O)Nc1ccc(O)c(CN(CC(=O)O)CC(=O)O)c1.[153Sm+3]` [Example 2]?
% Whole Body Retention (24 hrs.) [1]: 60.7% and 46.6%; Bone Uptake [2, 6]: 1.33 and 2.33; Liver Uptake [2, 6]: 2.00 and 1.00; Tumor Uptake (Dorsal neck) [3]: 3.00; Tumor Uptake (Left stifle) [3]: 2.00; Tumor Uptake (Right head) [3]: 0.00; Tumor Uptake (Right thorax) [3]: 0.00; Tumor Uptake (draining node) ([3]; draining node): 0.00

For `CC(=O)Nc1cc(CN(CC(=O)O)CC(=O)O)c(O)c(CN(CC(=O)O)CC(=O)O)c1.[153Sm+3]` [Example 3], which “% Whole Body Retention (24 hrs.)” value [1] is on record?
The value was 42.9% and 37.1%.

What about the “Tumor Uptake (Left sacrum)” value ([3]; Left sacrum) of the same molecule?
The value was 3.00.

And the “Tumor Uptake (Right nasal)” value ([3]; Right nasal)?
The value was 2.00.

What about the “Tumor Uptake (Right stifle)” value ([3]; Right stifle) of the same molecule?
The value was 0.00.

For `O=C([O-])CN(CCN(CC(=O)[O-])CC(=O)[O-])CCN(CC(=O)[O-])CC(=O)[O-].[99Tc+4]` [^99m Tc-DTPA], which elimination route [4] is on record?
Its elimination route is “eliminated from the body by the kidneys into the urine”.

And the tissue localization [4]?
The tissue localization was “does not result in the radionuclide localizing in any tissue”.

For `O=C(O)CN(CCN(CC(=O)O)CC(=O)O)CC(=O)O` [ethylenediaminetetraacetic acid (EDTA), ethylenediaminetetraacetic acid], which tumor imaging (Ehrlich tumors) is on record?
Its tumor imaging is “less effective”.

Which results are given for `CC(=O)Nc1cc(CN(CC(=O)O)CC(=O)O)c(O)c(CN(CC(=O)O)CC(=O)O)c1.[153Sm+3]` [Example 4]?
% Whole Body Retention (24 hrs.) [1]: 55.2% and 48.2%; Bone Uptake [2, 6]: 1.67; Liver Uptake [2, 6]: 3.00 and 2.00; Tumor Uptake (Left carpus) ([3]; Left carpus): 0.00; Tumor Uptake (Left stifle) [3]: 0.00; Tumor Uptake (Right ear) ([3]; Right ear): 2.00

With `CC(=O)Nc1cc(CN(CC(=O)O)CC(=O)O)c(O)c(CN(CC(=O)O)CC(=O)O)c1.[153Sm+3]` [Example 1] as the molecule, how does the “% Whole Body Retention (24 hrs.)” value [1] read?
The value was 29.5% and 40.1%.

And the “Bone Uptake” value [2, 6]?
The value was 3.00.

What about the “Liver Uptake” value [2, 6] of the same molecule?
The value was 0.67.

What about the “Tumor Uptake (Dorsal neck)” value [3] of the same molecule?
The value was 3.00.

What about the “Tumor Uptake (Left stifle)” value [3] of the same molecule?
The value was 2.00.

What about the “Tumor Uptake (Right head)” value [3] of the same molecule?
Its value is 0.67.

And the “Tumor Uptake (Right thorax)” value [3]?
Its value is 2.00.

With `O=C(O)CNCC(=O)O` [iminodiacetic acid (IDA), iminodiacetic acid] as the molecule, how does the tumor imaging (Ehrlich tumors) read?
Its tumor imaging is “less effective”.

For ^99m Tc-ethylenediaminediacetic acid, which tumor imaging (Ehrlich tumors) is on record?
The tumor imaging was “could be used to image tumors”.

For `CN(CC(=O)O)CC(=O)O` [methyliminodiacetic acid (MIDA), methyliminodiacetic acid], which tumor imaging (Ehrlich tumors) is on record?
The tumor imaging was “less effective”.

For `O=C(O)CN(CCO)CCN(CC(=O)O)CC(=O)O` [hydroxyethylethylenediaminetriacetic acid], which tumor imaging (Ehrlich tumors) is on record?
Its tumor imaging is “less effective”.
